Measured values published in ChEMBL document CHEMBL1131748, “Nitroquinolones with broad-spectrum antimycobacterial activity in vitro” (1999).
Converted amounts (≈) assume the structure as drawn.

Experiments:
Format in all cases: functional
[1] = system: Mycolicibacterium fortuitum; test: Minimum inhibitory concentration required in vitro to reduce the number of viable of Mycobacterium fortuitum (clinical isolate) by 50%
[2] = system: Mycobacterium tuberculosis; test: Minimum inhibitory concentration required in vitro to reduce the number of viable of Mycobacterium tuberculosis clinical isolate 1104 by 90%
[3] = system: Mycolicibacterium fortuitum; test: Minimum inhibitory concentration required in vitro to reduce the number of viable of Mycobacterium fortuitum (clinical isolate) by 90%
[4] = system: Streptococcus; test: Minimum bactericidal concentration required in vitro against Streptococcus D
[5] = system: Shigella; test: Minimum bactericidal concentration required in vitro against Shigella
[6] = system: Streptococcus; test: Minimum inhibitory concentration required in vitro against Streptococcus D
[7] = system: Staphylococcus aureus; test: Minimum inhibitory concentration required in vitro against Staphylococcus aureus
[8] = system: Mycobacterium avium; test: Minimum inhibitory concentration required in vitro to reduce the number of viable of Mycobacterium avium complex (MAC) ATCC 49601 by 50%
[9] = system: MT4; test: Concentration required to reduce the viability of mock-infected MT-4 cells by 50%; settings: Homo sapiens
[10] = system: Mycobacterium tuberculosis; test: Minimum inhibitory concentration required in vitro to reduce the number of viable of Mycobacterium tuberculosis ATCC 27294 by 90%
[11] = system: Shigella; test: Minimum inhibitory concentration required in vitro against Shigella
[12] = system: Mycobacterium tuberculosis; test: Minimum inhibitory concentration required in vitro to reduce the number of viable of Mycobacterium tuberculosis clinical isolate 1104 by 50%
[13] = system: Salmonella; test: Minimum bactericidal concentration required in vitro against Salmonella
[14] = system: Mycolicibacterium smegmatis; test: Minimum inhibitory concentration required in vitro to reduce the number of viable of Mycobacterium smegmatis ATCC 19420 by 90%
[15] = system: Mycobacterium tuberculosis; test: Minimum inhibitory concentration required in vitro to reduce the number of viable of Mycobacterium tuberculosis ATCC 27294 by 50%
[16] = system: Staphylococcus aureus; test: Minimum bactericidal concentration required in vitro against Staphylococcus aureus
[17] = system: Mycolicibacterium smegmatis; test: Minimum inhibitory concentration required in vitro to reduce the number of viable of Mycobacterium smegmatis ATCC 19420 by 50%
[18] = system: Salmonella; test: Minimum inhibitory concentration required in vitro against Salmonella
[19] = system: Mycobacterium avium; test: Minimum inhibitory concentration required in vitro to reduce the number of viable of Mycobacterium avium complex (MAC) ATCC 49601 by 90%

In the case of `O=C(O)c1cn(C2CC2)c2cc(NC3CC3)c([N+](=O)[O-])cc2c1=O`, the MIC50 [1] was 3.6 µM (≈ 1.19 µg/mL), the MIC90 [2] was > 200 µM and the MIC90 [3] was 100 µM (≈ 32.9 µg/mL). It also gave an MBC [4] of 0.8 µM (≈ 0.263 µg/mL), an MBC [5] of 1.5 µM (≈ 0.494 µg/mL) and an MIC [6] of 0.8 µM (≈ 0.263 µg/mL). The MIC [7] was 0.8 µM (≈ 0.263 µg/mL), the MIC50 [8] was > 200 µM and the CC50 [9] was 40 µM. For the same molecule, the MIC90 [10] was > 200 µM, the MIC [11] was 1.5 µM (≈ 0.494 µg/mL) and the MIC50 [12] was 72 µM (≈ 23.7 µg/mL). The MBC [13] was 1.5 µM (≈ 0.494 µg/mL), the MIC90 [14] was 50 µM (≈ 16.5 µg/mL) and the MIC50 [15] was ≥ 200 µM. The MBC [16] was 1.5 µM (≈ 0.494 µg/mL), the MIC50 [17] was 3.2 µM (≈ 1.05 µg/mL) and the MIC [18] was 1.5 µM (≈ 0.494 µg/mL).
`CC(C)(C)Nc1cc2c(cc1[N+](=O)[O-])c(=O)c(C(=O)O)cn2C(C)(C)C` gave an MIC90 [2] of 6 µM (≈ 2.17 µg/mL), an MBC [4] of 0.05 µM (≈ 0.0181 µg/mL) and an MBC [5] of 6 µM (≈ 2.17 µg/mL). It also gave an MIC [6] of 0.05 µM (≈ 0.0181 µg/mL), an MIC [7] of 0.05 µM (≈ 0.0181 µg/mL) and an MIC50 [8] of 1.2 µM (≈ 0.434 µg/mL). It also gave a CC50 [9] of 140 µM, an MIC90 [10] of 6 µM (≈ 2.17 µg/mL) and an MIC [11] of 6 µM (≈ 2.17 µg/mL). The MIC50 [12] was 1.5 µM (≈ 0.542 µg/mL), the MBC [13] was 6 µM (≈ 2.17 µg/mL) and the MIC90 [14] was 1.5 µM (≈ 0.542 µg/mL). It also gave an MIC50 [15] of 1.4 µM (≈ 0.506 µg/mL), an MIC90 [19] of 12 µM (≈ 4.34 µg/mL) and an MBC [16] of 0.05 µM (≈ 0.0181 µg/mL). The MIC50 [17] was 0.5 µM (≈ 0.181 µg/mL) and the MIC [18] was 3 µM (≈ 1.08 µg/mL).
In the case of `CC(C)(C)Nc1cc2c(cc1[N+](=O)[O-])c(=O)c(C(=O)O)cn2C1CC1`, the MIC50 [1] was > 125 µM, the MIC90 [2] was > 200 µM and the MBC [4] was 2.5 µM (≈ 0.863 µg/mL). For the same molecule, the MBC [5] was 25 µM (≈ 8.63 µg/mL), the MIC [6] was 0.6 µM (≈ 0.207 µg/mL) and the MIC [7] was 0.6 µM (≈ 0.207 µg/mL). For the same molecule, the MIC50 [8] was 54 µM (≈ 18.6 µg/mL), the CC50 [9] was 192 µM and the MIC90 [10] was > 200 µM. For the same molecule, the MIC [11] was 25 µM (≈ 8.63 µg/mL), the MIC50 [12] was 16 µM (≈ 5.53 µg/mL) and the MBC [13] was 25 µM (≈ 8.63 µg/mL). For the same molecule, the MIC90 [14] was 5 µM (≈ 1.73 µg/mL), the MIC50 [15] was 35 µM (≈ 12.1 µg/mL) and the MIC90 [19] was > 200 µM. It also gave an MBC [16] of 1.2 µM (≈ 0.414 µg/mL), an MIC50 [17] of 2 µM (≈ 0.691 µg/mL) and an MIC [18] of 25 µM (≈ 8.63 µg/mL).
In the case of `CC(C)(C)n1cc(C(=O)O)c(=O)c2cc([N+](=O)[O-])c(NC3CC3)cc21`, the MIC50 [1] was > 125 µM, the MIC90 [2] was > 200 µM and the MBC [4] was 10 µM (≈ 3.45 µg/mL). For the same molecule, the MBC [5] was 25 µM (≈ 8.63 µg/mL), the MIC [6] was 5 µM (≈ 1.73 µg/mL) and the MIC [7] was 2.5 µM (≈ 0.863 µg/mL). For the same molecule, the MIC50 [8] was 47 µM (≈ 16.2 µg/mL), the CC50 [9] was ≥ 200 µM and the MIC90 [10] was > 200 µM. For the same molecule, the MIC [11] was 25 µM (≈ 8.63 µg/mL), the MIC50 [12] was 47 µM (≈ 16.2 µg/mL) and the MBC [13] was 25 µM (≈ 8.63 µg/mL). The MIC90 [14] was 7 µM (≈ 2.42 µg/mL), the MIC50 [15] was 31 µM (≈ 10.7 µg/mL) and the MIC90 [19] was > 200 µM. The MBC [16] was 10 µM (≈ 3.45 µg/mL), the MIC50 [17] was 2 µM (≈ 0.691 µg/mL) and the MIC [18] was 25 µM (≈ 8.63 µg/mL).
`CC(C)(C)Nc1cc2c(cc1F)c(=O)c(C(=O)O)cn2C(C)(C)C` gave an MIC50 [1] of 36 µM (≈ 12 µg/mL), an MIC90 [3] of 129 µM (≈ 43.1 µg/mL) and an MBC [4] of 12 µM (≈ 4.01 µg/mL). For the same molecule, the MBC [5] was 25 µM (≈ 8.36 µg/mL), the MIC [6] was 12 µM (≈ 4.01 µg/mL) and the MIC [7] was 12 µM (≈ 4.01 µg/mL). The MIC50 [8] was > 200 µM, the CC50 [9] was > 200 µM and the MIC90 [10] was ≥ 200 µM. For the same molecule, the MIC [11] was 12 µM (≈ 4.01 µg/mL), the MIC50 [12] was > 200 µM and the MBC [13] was 12 µM (≈ 4.01 µg/mL). For the same molecule, the MIC90 [14] was > 200 µM, the MIC50 [15] was 126 µM (≈ 42.1 µg/mL) and the MBC [16] was 12 µM (≈ 4.01 µg/mL). For the same molecule, the MIC50 [17] was 34.5 µM (≈ 11.5 µg/mL) and the MIC [18] was 12 µM (≈ 4.01 µg/mL).
`Nc1cc2c(=O)c(C(=O)O)cn(C3CC3)c2cc1NC1CC1` showed an MIC50 [1] of 200 µM (≈ 59.9 µg/mL), an MBC [4] of 50 µM (≈ 15 µg/mL) and an MIC [6] of 50 µM (≈ 15 µg/mL). It also gave an MIC [7] of 25 µM (≈ 7.48 µg/mL), an MIC50 [8] of 129 µM (≈ 38.6 µg/mL) and a CC50 [9] of 200 µM. The MIC [11] was > 200 µM, the MIC50 [12] was > 200 µM and the MIC90 [14] was > 200 µM. For the same molecule, the MIC50 [15] was > 200 µM, the MIC90 [19] was > 200 µM and the MBC [16] was 25 µM (≈ 7.48 µg/mL). The MIC50 [17] was 156 µM (≈ 46.7 µg/mL) and the MIC [18] was > 200 µM.
`CC(C)(C)Nc1cc2c(cc1N)c(=O)c(C(=O)O)cn2C(C)(C)C` was tested, and the MIC50 [1] was > 125 µM, the MIC90 [2] was > 200 µM and the MIC [6] was > 125 µM. For the same molecule, the MIC [7] was > 125 µM, the MIC50 [8] was 140 µM (≈ 46.4 µg/mL) and the CC50 [9] was > 200 µM. For the same molecule, the MIC90 [10] was > 200 µM, the MIC [11] was > 125 µM and the MIC50 [12] was > 200 µM. The MIC50 [15] was 168 µM (≈ 55.7 µg/mL), the MIC90 [19] was > 200 µM and the MIC50 [17] was > 125 µM. For the same molecule, the MIC [18] was > 125 µM.
In the case of `O=C(O)c1cn(C2CC2)c2cc(NC3CC3)c(F)cc2c1=O`, the MIC50 [1] was > 125 µM, the MIC90 [3] was > 200 µM and the MBC [4] was 12 µM (≈ 3.63 µg/mL). For the same molecule, the MBC [5] was 25 µM (≈ 7.56 µg/mL), the MIC [6] was 12 µM (≈ 3.63 µg/mL) and the MIC [7] was 12 µM (≈ 3.63 µg/mL). For the same molecule, the MIC50 [8] was > 200 µM, the CC50 [9] was > 200 µM and the MIC [11] was 12 µM (≈ 3.63 µg/mL). For the same molecule, the MIC50 [12] was > 200 µM, the MBC [13] was 12 µM (≈ 3.63 µg/mL) and the MIC90 [14] was > 200 µM. For the same molecule, the MIC50 [15] was > 200 µM, the MIC90 [19] was > 200 µM and the MBC [16] was 12 µM (≈ 3.63 µg/mL). For the same molecule, the MIC50 [17] was 150 µM (≈ 45.3 µg/mL) and the MIC [18] was 12 µM (≈ 3.63 µg/mL).
With `O=C(O)c1cn(C2CC2)c2cc(N3CCNCC3)c(F)cc2c1=O` [CIPROFLOXACIN] the MBC [4] was 0.8 µM (≈ 0.265 µg/mL), the MBC [5] was 0.01 µM (≈ 0.00331 µg/mL) and the MIC [6] was 0.4 µM (≈ 0.133 µg/mL). The MIC [7] was 0.4 µM (≈ 0.133 µg/mL), the MIC50 [8] was 2 µM (≈ 0.663 µg/mL) and the CC50 [9] was 60 µM. It also gave an MIC90 [10] of 3 µM (≈ 0.994 µg/mL), an MIC [11] of 0.01 µM (≈ 0.00331 µg/mL) and an MBC [13] of 0.01 µM (≈ 0.00331 µg/mL). It also gave an MIC90 [19] of 3 µM (≈ 0.994 µg/mL), an MBC [16] of 0.4 µM (≈ 0.133 µg/mL) and an MIC [18] of 0.01 µM (≈ 0.00331 µg/mL).
`CC1COc2c(N3CCN(C)CC3)c(F)cc3c(=O)c(C(=O)O)cn1c23` (stereo not drawn) [OFLOXACIN] was tested, and the MIC50 [1] was 2 µM (≈ 0.723 µg/mL), the MIC90 [2] was 3 µM (≈ 1.08 µg/mL) and the MIC90 [3] was 5 µM (≈ 1.81 µg/mL). The MBC [4] was 1.5 µM (≈ 0.542 µg/mL), the MBC [5] was 0.4 µM (≈ 0.145 µg/mL) and the MIC [6] was 1.5 µM (≈ 0.542 µg/mL). For the same molecule, the MIC [7] was 0.8 µM (≈ 0.289 µg/mL), the MIC50 [8] was 1.5 µM (≈ 0.542 µg/mL) and the CC50 [9] was > 200 µM. It also gave an MIC90 [10] of 3 µM (≈ 1.08 µg/mL), an MIC [11] of 0.4 µM (≈ 0.145 µg/mL) and an MIC50 [12] of 2 µM (≈ 0.723 µg/mL). The MBC [13] was 0.4 µM (≈ 0.145 µg/mL), the MIC90 [14] was 4 µM (≈ 1.45 µg/mL) and the MIC50 [15] was 3 µM (≈ 1.08 µg/mL). The MIC90 [19] was 3 µM (≈ 1.08 µg/mL), the MBC [16] was 0.8 µM (≈ 0.289 µg/mL) and the MIC50 [17] was 2 µM (≈ 0.723 µg/mL). The MIC [18] was 0.4 µM (≈ 0.145 µg/mL).
